In BindingDB's records for patent US10738053 (Hoffmann-La Roche, 2020):

Target: Autotaxin (Homo sapiens, UniProt Q13822)
Assay: Enzyme Inhibition Assay
Protocol: Then, 15 μL of 41.7 nM ATX solution was added (30 nM final concentration), mixed five times and then incubated for 15 minutes at 30° C. 10 μL of MR121 substrate solution was added (1 μM final concentration), mixed 30 times and then incubated for 15 minutes at 30° C.

IC50: 7 nM
Structure (SMILES): NS(=O)(=O)c1ccc(C(=O)N2C[C@H]3CN(C(=O)COc4ccc(OC(F)(F)F)cc4)C[C@]3(F)C2)c(F)c1 (relative stereo) [US10738053, Example 3.01]
